Reference: the NIST ThermoML archive (doi:10.1016/j.jct.2009.07.020)

Legend:
[1] = 293.15 K, 101.33 kPa, Liquid; for speed of sound: Sing-around technique in a fixed-path interferometer; for mass density: Vibrating tube method
[2] = xn = mol fraction of the nth substance listed; conditions: 101 kPa, Liquid; for speed of sound: Sing-around technique in a fixed-path interferometer; for mass density: Vibrating tube method

ClC(Cl)=C(Cl)Cl [tetrachloroethene]
[1]
Conditions	mass density [kg/m3]	speed of sound [m/s]
–	1622.39	1053.8

CCCCCCCCCCO [decan-1-ol] + BrCCBr
[2], x2 = 0
Conditions	mass density [kg/m3]	speed of sound [m/s]
293.15 K	829.991	1396.4
313.15 K	816.264	1328.7

ClCCCl [1,2-dichloroethane] + CCCCCCCCCCO
[2]
Conditions	mass density, 293.15 K [kg/m3]	mass density, 313.15 K [kg/m3]	speed of sound, 293.15 K [m/s]	speed of sound, 313.15 K [m/s]
x1 = 0.0692	841.579	827.391	1382.8	1314.9
x1 = 0.1136	849.567	835.077	1373.9	1305.7
x1 = 0.2034	867.401	852.221	1355.3	1287.4
x1 = 0.2938	887.762	871.824	1335.6	1267.8
x1 = 0.3645	905.827	889.228	1319.7	1251.3
x1 = 0.507	949.509	931.327	1287.5	1217.8
x1 = 0.6043	986.214	966.695	1265.4	1195.1
x1 = 0.699	1029.23	1008.07	1244.6	1174.3
x1 = 0.7455	1053.66	1031.55	1235.1	1164.8
x1 = 0.7816	1074.54	1051.57	1228.3	1157.8
x1 = 0.8142	1094.99	1071.24	1222.5	1151.9
x1 = 0.8429	1114.4	1089.86	1218.1	1147.4
x1 = 0.9034	1160.56	1134.21	1211.6	1140.5
x1 = 0.9579	1209.39	1181.34	1210.4	1136.8
x1 = 1	1252.74	1223.38	1212.8	1136

CCCCCCCCCCO [decan-1-ol] + ClCCCl
[2], x2 = 0
Conditions	mass density [kg/m3]	speed of sound [m/s]
293.15 K	829.991	1396.4
313.15 K	816.264	1328.7

CCCCCCCCCCO [decan-1-ol] + ClC(Cl)=C(Cl)Cl
[2], x2 = 0
Conditions	mass density [kg/m3]	speed of sound [m/s]
293.15 K	829.991	1396.4
313.15 K	816.264	1328.7

BrCCBr [1,2-dibromoethane] + CCCCCCCCCCO
[2]
Conditions	mass density, 293.15 K [kg/m3]	mass density, 313.15 K [kg/m3]	speed of sound, 293.15 K [m/s]	speed of sound, 313.15 K [m/s]
x1 = 0.0713	873.696	859.289	1363.1	1296.4
x1 = 0.1171	903.742	888.874	1341.8	1275.4
x1 = 0.1704	940.915	925.398	1317.2	1251.8
x1 = 0.2858	1030.69	1013.6	1266	1202.9
x1 = 0.3911	1125.7	1106.72	1218.3	1157.2
x1 = 0.51	1252.15	1230.3	1167.7	1108.9
x1 = 0.543	1291.44	1268.7	1153.4	1095
x1 = 0.5903	1351.8	1327.54	1134.1	1076.8
x1 = 0.6875	1492.47	1464.54	1095.3	1040.5
x1 = 0.7289	1560.17	1530.45	1080	1025.9
x1 = 0.7873	1665.23	1632.9	1059.7	1006.6
x1 = 0.8411	1773.36	1738.48	1042.2	990.48
x1 = 0.9006	1908.2	1870.5	1025.5	975.34
x1 = 0.9495	2033.54	1993.5	1015.6	965.65
x1 = 1	2179.6	2137.7	1007	955.97

CCCCCCCCCCO [decan-1-ol]
[1]
Conditions	mass density [kg/m3]	speed of sound [m/s]
–	829.991	1396.4

BrCCBr [1,2-dibromoethane]
[1]
Conditions	mass density [kg/m3]	speed of sound [m/s]
–	2179.6	1007

ClCCCl [1,2-dichloroethane]
[1]
Conditions	mass density [kg/m3]	speed of sound [m/s]
–	1252.74	1212.8

ClC(Cl)=C(Cl)Cl [tetrachloroethene] + CCCCCCCCCCO
[2]
Conditions	mass density, 293.15 K [kg/m3]	mass density, 313.15 K [kg/m3]	speed of sound, 293.15 K [m/s]	speed of sound, 313.15 K [m/s]
x1 = 0.057	854.607	840.425	1378.1	1310.7
x1 = 0.1355	890.745	875.885	1350.2	1283.1
x1 = 0.2186	932.241	916.585	1319.8	1252.8
x1 = 0.2882	969.944	953.338	1294.8	1228.4
x1 = 0.3824	1025.8	1007.72	1260.6	1195
x1 = 0.4464	1067.31	1048.17	1237.2	1172
x1 = 0.499	1103.86	1083.69	1218.5	1153.5
x1 = 0.5849	1168.91	1146.94	1187.2	1122.7
x1 = 0.6417	1216.01	1192.81	1166.5	1102.9
x1 = 0.7175	1284.75	1259.72	1139.4	1076
x1 = 0.7786	1345.73	1319.21	1117.7	1054.1
x1 = 0.8527	1427.55	1398.72	1092.4	1029.3
x1 = 0.9003	1485.31	1455.08	1077.6	1015
x1 = 0.941	1538.45	1507.24	1065.9	1005
x1 = 1	1622.39	1588.98	1053.8	993.96
